This note sets out measurements from ChEMBL document CHEMBL1157232, “Wortmannilactones A-D, 22-membered triene macrolides from Talaromyces wortmannii” (J Nat Prod, 2006).

The structures appear in SMILES notation. Values after ≈ are worked out from the molar mass of the structure shown.

For one test, the system named is A549. The test is described as follows: Cytotoxicity against human A549 cells. In kind it is functional, cell-based.
The subject of another test is MDA-MB-231. Description: Cytotoxicity against human MDA-MB-231 cells. In kind it is functional, cell-based.
Test [1] can be described thus: Cytotoxicity against human HCT115 cells. It is filed as functional, cell-based.
In a further test the test system is K562. Description: Cytotoxicity against human K562 cells. It is filed as functional, cell-based.
Test [2] in a line: Cytotoxicity against human HCT5 cells. In kind it is functional, cell-based.
A further test relates to Human alphaherpesvirus 1. Description: Antiviral activity against Herpes simplex virus 1. It is filed as functional, organism-based.
The test system of another test is B16-F10. Description: Cytotoxicity against mouse B16-F10 cells. It is filed as functional, cell-based.
A further test relates to Human alphaherpesvirus 2. The test is described as follows: Antiviral activity against Herpes simplex virus 2. In kind it is functional, organism-based.

As usually defined, the IC50 is the concentration that inhibits the measured activity by half. A high value points to weaker potency. As to `COC1/C=C/C=C/C=C/CC(O)CC(O)C/C=C/C=C/C=C/C(=O)OC(CC(C)O)C1` (stereo not drawn) [WORTMANNILACTONE D], the IC50 in the test with A549 came out at 116 µM; with MDA-MB-231 it was 111 µM; in test [1], 44.7 µM; with K562 it was 123 µM; in test [2] it was 46.3 µM.

As for `CC(O)CC1C/C=C/C=C/C=C/C(O)CC(O)CC(O)C/C=C/C=C/C=C/C(=O)O1` (stereo not drawn) [WORTMANNILACTONE A], the IC50 is 76.5 µM in the test on A549; 108 µM with MDA-MB-231; 35 µM in test [1]; 65.7 µM in the test with K562; 28.7 µM in test [2].

As to `C[C@@H]1CCC/C=C/C=C/[C@H](O)C[C@@H](O)C/C=C\C=C\[C@@H](O)C/C=C/C=C\C(=O)O1` [MACROLACTIN A], the IC50 was 5 µg/mL (≈ 12.4 µM) in the test with Human alphaherpesvirus 1, 3.5 µg/mL (≈ 8.69 µM) with B16-F10 and 8.3 µg/mL (≈ 20.6 µM) with Human alphaherpesvirus 2.

For the molecule `CC(O)CC1CC(O)/C=C/C=C/C=C/CC(O)CC(O)C/C=C/C=C/C=C/C(=O)O1` (stereo not drawn) [WORTMANNILACTONE C], the IC50 amounted to 118 µM with A549; 120 µM with MDA-MB-231; 52.4 µM in test [1]; 130 µM with K562; 56.3 µM in test [2].

Turning to `COC1/C=C/C=C/C=C/CC(CC(C)O)OC(=O)/C=C/C=C/C=C/CC(O)CC(O)C1` (stereo not drawn) [WORTMANNILACTONE B], the IC50 in the test with A549 turned out to be 104 µM; with MDA-MB-231 it was 95.6 µM; in test [1], 41.7 µM; with K562 it was 116 µM; in test [2], 32.4 µM.
